{"source": "patent US7959954B2", "about": "“Pharmaceutical composition for treatment of diabetes and dyslipidemia” (Council of Scientific and Industrial Research, priority 2005, dated 2011)", "key": {"dislipidemic hamster": {"tested_on": "dislipidemic hamster", "test": "Antidyslipidemic activity in dislipidemic (high fat diet) hamster model;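 further: male golden Syrian hamsters on high fat diet for 10 days, oral treatment days 4–10, non-fasted plasma sampled on day 10, compared with vehicle-treated high fat diet controls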", "description": "Test Models used for the Evaluation of the Antidyslipidemic Activity:\nMale golden Syrian Hamsters weighing 120-130 g were divided into dyslipidemic and dislipidemic plus drug treated groups of the eight animals in each groups were used. Feeding with high fat diet (supplied by NOVO—NORDISK, Dennmark, Cat produced Dyslipidemia. No-99122211). Dislipidemic hamsters had free access to HFD and water ad-libitum. throughout the experiment for ten days. The test sample was fed orally at a dose of 250 mg./kg. from day-4 to day-10 (7 days) in the HFD hamsters. Normal hamsters fed with HFD and given drug vehicle only, served as control animals. Body weight of each animal and diet intake of each animal group was recorded daily to check the effect of the drug on food intake and body weight of the animals. At the end of the experiment i.e. on day 10th, the blood of non fasted animals were withdrawn in two sets of tubes in which one set contains 120 μl NaF (4.5 mg./ml) and after 15 min. in cold, plasma was separated. Biochemical analysis of plasma with out NaF was performed on the same day for Triglycerides (TG) total Cholesterol (TC) HDL-Cholesterol using enzymatic diagnostic kits. Similarly the plasma containing NaF Glucose was assayed for glucose, glycerol and free Fatty acids (FFA) on Synchron CX-5. Clinical System Beckmann Coulter Instrument."}, "STZ injected rats": {"tested_on": "STZ injected rats", "test": "STZ model, antihyperglycemic activity", "assay_type": "in vivo, Sprague-Dauley [SD] strain male albino rats", "details": "dose 100 mg/kg", "experimental": "Drug metformate was administered half an hour before glucose was given. […] Statistical significance was done by AUC-method. [B] (i) STZ-Model Procedure Sprague-Dauley [SD] strain male albino rats of body weight 160±20 g were taken for study. Animals in 3 cage were kept for 7 days under standard experimental conditions before the experiment. Animals were given standard rat-pellet diet and tap-water ad-libitum. Day ‘0’-Day before experiment, animals were kept for overnight starvation. […] USA] was injected intraperitoneally to all the starved animals at a dose of 60 mg/kg, dissolved in 100 m M citrate buffer, pH 4.5. Day ‘2’ rats remained as such in the same conditions. Food pellets were removed on the penultimate day at 5:00 P.M. in the evening and animals were kept on over night starvation. […] Blood was taken from tail of the rats by stab-techniques and the glucose level was estimated using “Advantage Glucometer” of Boehringer Mannheim Co, USA. […] Group-I was kept only for control [STZ-injection were given only]. Group II were treated with STZ+test samples. […] [formula] The extract/fraction/compounds found active were statistically analyzed to determine area under curve [AUC] by plotting the blood-glucose values against time. [B] (ii) STZ-s Procedure"}, "[1]": {"tested_on": "sucrose challenged Streptozotocin induced diabetic rats", "test": "STZ-s model, sucrose challenged low dosed Streptozotocin induced diabetic rats", "assay_type": "in vivo, Male albino rats of Sprague Dawley strain", "details": "for STZ-s model % change 5 h / STZ-s model % change 24 h: dose 25 mg/kg", "experimental": "[formula] […] [B] (ii) STZ-s Procedure\nMale albino rats of Sprague Dawley strain of the body weight 160±20 g were selected for this study. Streptozotocin (Sigma, USA) was dissolved in 100 mM citrate buffer pH 4.5 and calculated amount of the fresh solution was injected to overnight fasted rats (45 mg./Kg.) intraperitonially. Blood was checked 48 hours later by glucosetrips and animals showing blood glucose values between 144 to 270 mg./dl. (8 to 15 mM) were included in the experiments and termed diabetic. The diabetic animals were divided into groups comprising 5 to 6 animals in each group. […] The animals of the control group were given an equal amount of 1.0% gum acacia. A sucrose load of the 2.5 g/Kg of the body weight was given after 30 minutes of the drug administration. After 30 minutes of the post sucrose load blood glucose level was again checked by glucostrips at 30, 60, 90, 120, 180, 240, 300 minutes and 24 hours respectively. […] The food but not the water was withheld from the cages during the experimentation. Comparing the AUC of experimental and control groups determined the percent of antihyperglycemic activity. Statistical comparison between groups was made by the Student's “t” test."}, "db/db mice [2]": {"tested_on": "db/db mice", "test": "db/db mice antihyperglycemic activity (day 6 post prandial, day 10 OGTT)", "assay_type": "in vivo, C57BL/KsBom-db mice", "excerpt": "(§1) The db/db mouse is a well-characterized model of type-2 diabetes. The background for the db/db mouse is the C57BL/Ks strain. The major deficiency of the C57BL.Ks Bom-db mouse (db/db) is lack of a functional leptin receptor. This leads to defective leptin signaling and a complete lack of feedback from leptin. […] The db/db mouse develops NIDDM from around week 10. The disease is stable until week 20, where destruction of pancreatic β-cells can be recognized clinically as decreasing levels of plasma insulin and very severe […]. The db/db mouse has a maximal life span of 9-12 months. The advantage of using male mice for experimental purposes is that the fluctuations in plasma parameters are less than in females where the oestrogens cycle affects the clinical diabetes. The optimal age of db/db mice used for experiments will be from week-12 to 18 when they have developed NIDDM with diabetic dyslipidemia but still have functional β-cells in the pancreas. C57BL/KsBom-db mice 12-18 weeks, 40-50 g bred in the animal house of CDRI, Lucknow. 10 mice were housed in groups of (5 males and 5 females) were housed in groups of 5 individuals (same sex) in a room controlled for temperature (23±2.0° C.) and 12/12 hours light/dark cycle (light on 6.00AM.). Body weight was measured daily from day 1 to day 10. All animals had free access to fresh water and to normal chow except on the days of the post prandial protocol day 6 and during the overnight fast before the OGTT on day 10. The animals always had access to water during experimental periods. Blood glucose was checked every morning up till day 5. On day 6 post prandial protocol was employed, in this method blood glucose was checked at −0.5 h and 0 h. The test samples were given to the treatment group whereas vehicle received the only gum acacia (1.0%); the blood glucose was again checked at 1, 2, 3, 4 and 6 h posttest drug treatment. On day 8, blood was collected for serum insulin and lipid profile measurements and finally on day 10 an oral glucose tolerance test (OGTT) was performed after an overnight fasting. Blood glucose was measured at 0.0 min. post treatment, at this juncture glucose solution was given at a dose of 3 g./Kg. to all the groups including vehicle; the profile of blood glucose was checked at 30, 60, 90 and 120 minutes post glucose administration.\nTable-5-a represents the antihyperglycemic activity profile of 50% Aq.-EtOH extract and chloroform soluble fraction of the aq.-ethanolic extract and the standard drug Roziglitazone in hyperglycemic and hyperinsulinemic db/db mice. The results of the antidiabetic evaluations of the epicarp extracts/fractions/compounds in GLM and STZ models are given in table-1"}, "db/db mice [3]": {"tested_on": "db/db mice", "test": "Anti-dislipidemic activity (lipid profile) in db/db mice", "assay_type": "in vivo, C57BL/KsBom-db mice", "details": "dose 10 mg/Kg", "excerpt": "as §1, with “The test samples were given to the treatment group whereas vehicle received the only gum acacia (1.0%); the blood glucose was again checked at 1, 2, 3, 4 and 6 h posttest drug treatment. On day 8, blood was collected for serum insulin and lipid profile measurements and finally on day 10 an oral glucose tolerance test (OGTT) was performed after an overnight fasting.” left out"}}, "note": "Marks after values point to notes of the source that are not given here.", "data": [{"molecule": "CC(C)OC(=O)C(C)(C)Oc1ccc(C(=O)c2ccc(Cl)cc2)cc1", "note": "[Fenofibrate, reference compound]", "values": [{"measurement": "CHOL (Cholesterol)", "setting": "dislipidemic hamster; dose 108.24 mg/kg (300 μmole)", "result": "−18* %"}, {"measurement": "FFA (Free Fatty Acid)", "setting": "dislipidemic hamster; dose 108.24 mg/kg (300 μmole)", "result": "−20* %"}, {"measurement": "GLU (Glucose)", "setting": "dislipidemic hamster; dose 108.24 mg/kg (300 μmole)", "result": "−22", "unit": "%"}, {"measurement": "GLY (Glycerol)", "setting": "dislipidemic hamster; dose 108.24 mg/kg (300 μmole)", "result": "−36** %"}, {"measurement": "H/C (High density lipoprotein/cholesterol ratio)", "setting": "dislipidemic hamster; dose 108.24 mg/kg (300 μmole)", "result": "+10%"}, {"measurement": "TG (Triglycerides)", "setting": "dislipidemic hamster; dose 108.24 mg/kg (300 μmole)", "result": "−42* %"}]}, {"molecule": "CC(=O)O[C@@H]1C[C@H]2C(C)(C)C(=O)C=C[C@]2(C)[C@H]2CC[C@@]3(C)[C@H](c4ccoc4)OC(=O)[C@H]4O[C@]43[C@@]21C", "note": "[Gedunin]", "values": [{"measurement": "In STZ model % lowering", "setting": "STZ injected rats", "result": 10.5, "unit": "%"}, {"measurement": "In STZ model % lowering", "setting": "STZ injected rats; listed as gedunin", "result": "promising activity"}, {"measurement": "activity in STZ-s model", "setting": "[1]; rat, in vivo", "result": "active"}, {"measurement": "CHOL (Cholesterol)", "setting": "dislipidemic hamster; dose 25 mg/kg", "result": "+14%"}, {"measurement": "FFA (Free Fatty Acid)", "setting": "dislipidemic hamster; dose 25 mg/kg", "result": "−36*** %"}, {"measurement": "GLU (Glucose)", "setting": "dislipidemic hamster; dose 25 mg/kg", "result": "−28*** %"}, {"measurement": "GLY (Glycerol)", "setting": "dislipidemic hamster; dose 25 mg/kg", "result": "−22", "unit": "%"}, {"measurement": "H/C (High density lipoprotein/cholesterol ratio)", "setting": "dislipidemic hamster; dose 25 mg/kg", "result": "+11%"}, {"measurement": "HDL (High Density Lipoprotein)", "setting": "dislipidemic hamster; dose 25 mg/kg", "result": "+27* %"}, {"measurement": "TG (Triglycerides)", "setting": "dislipidemic hamster; dose 25 mg/kg", "result": "−47*** %"}, {"measurement": "activity in antidislipidemic hamster model", "setting": "dislipidemic hamster; hamster, in vivo", "result": "active"}]}, {"molecule": "CN(C)C(=N)N=C(N)N", "note": "[Metformin, reference compound]", "values": [{"measurement": "STZ-s model % change 5 h", "setting": "[1]; 5 h", "result": "−23.6** %"}, {"measurement": "STZ-s model % change 24 h", "setting": "[1]; 24 h", "result": "−26.5** %"}, {"measurement": "% Antihyperglycemic activity 5 h", "setting": "[1]; dose 100 mg/Kg, 5 h", "result": "23.6* ** %"}, {"measurement": "% Antihyperglycemic activity 24 h", "setting": "[1]; dose 100 mg/Kg, 24 h", "result": "26.5* * * %"}]}, {"molecule": "CCCCCCCCCCCCCCCC(=O)O", "note": "[Palmitic acid]", "values": [{"measurement": "% Activity in STZ-s model", "setting": "[1]; dose 100 mg/Kg", "result": "−5.6", "unit": "%"}]}, {"molecule": "CN(CCOc1ccc(CC2SC(=O)NC2=O)cc1)c1ccccn1", "note": "(stereo not shown) [Roziglitazone]", "values": [{"measurement": "antidiabetic effect in db/db mice", "setting": "db/db mice [2]; 10 mg/Kg", "result": "same order of activities"}, {"measurement": "% Antihyperglycemic activity Day 6", "setting": "db/db mice [2]; dose 3.0 mg/Kg, Day 6", "result": "6.24* %"}, {"measurement": "% Antihyperglycemic activity Day 10", "setting": "db/db mice [2]; dose 3.0 mg/Kg, Day 10", "result": "48.5* ** %"}, {"measurement": "Antihyperglycemic activity Day 6", "setting": "db/db mice [2]; dose 10 mg/Kg, Day 6", "result": "−13.8 **"}, {"measurement": "Antihyperglycemic activity Day 10", "setting": "db/db mice [2]; dose 10 mg/Kg, Day 10", "result": "−27.4 ***"}, {"measurement": "Anti-dislipidemic activity CHOL", "setting": "db/db mice [3]", "result": "−5.5"}, {"measurement": "Anti-dislipidemic activity HDL-C", "setting": "db/db mice [3]", "result": "+7.14"}, {"measurement": "Anti-dislipidemic activity TG", "setting": "db/db mice [3]", "result": "−16.0"}]}, {"molecule": "CC[C@H](CC[C@@H](C)[C@H]1CC[C@H]2[C@@H]3CC=C4C[C@@H](O[C@@H]5O[C@H](CO)[C@@H](O)[C@H](O)[C@H]5O)CC[C@]4(C)[C@H]3CC[C@]12C)C(C)C", "note": "[β-Sitosterol-β-D-glucoside]", "values": [{"measurement": "% Activity in STZ-s model", "setting": "[1]; dose 100 mg/Kg", "result": "+10.1%"}]}, {"molecule": "CC[C@H](CC[C@@H](C)[C@H]1CC[C@H]2[C@@H]3CC=C4C[C@@H](O)CC[C@]4(C)[C@H]3CC[C@]12C)C(C)C", "note": "[β-Sitosterol]", "values": [{"measurement": "STZ-s model % change 5 h", "setting": "[1]; 5 h", "result": "Nil"}, {"measurement": "STZ-s model % change 24 h", "setting": "[1]; 24 h", "result": "Nil"}, {"measurement": "FFA (Free Fatty Acid)", "setting": "dislipidemic hamster; dose 25 mg/kg", "result": "−38*** %"}, {"measurement": "GLY (Glycerol)", "setting": "dislipidemic hamster; dose 25 mg/kg", "result": "−14", "unit": "%"}, {"measurement": "H/C (High density lipoprotein/cholesterol ratio)", "setting": "dislipidemic hamster; dose 25 mg/kg", "result": "−7", "unit": "%"}, {"measurement": "HDL (High Density Lipoprotein)", "setting": "dislipidemic hamster; dose 25 mg/kg", "result": "−5", "unit": "%"}, {"measurement": "TG (Triglycerides)", "setting": "dislipidemic hamster; dose 25 mg/kg", "result": "−7", "unit": "%"}]}, {"molecule": "Photogedunin", "values": [{"measurement": "% Activity in STZ-s model", "setting": "[1]; dose 100 mg/Kg", "result": "+30.5%"}]}, {"molecule": "Xyloccensin-E", "values": [{"measurement": "STZ-s model % change 5 h", "setting": "[1]; 5 h", "result": "−6.91", "unit": "%"}, {"measurement": "STZ-s model % change 24 h", "setting": "[1]; 24 h", "result": "−0.34", "unit": "%"}, {"measurement": "CHOL (Cholesterol)", "setting": "dislipidemic hamster; dose 10 mg/kg", "result": "−18", "unit": "%"}, {"measurement": "FFA (Free Fatty Acid)", "setting": "dislipidemic hamster; dose 10 mg/kg", "result": "−43* %"}, {"measurement": "H/C (High density lipoprotein/cholesterol ratio)", "setting": "dislipidemic hamster; dose 10 mg/kg", "result": "−10", "unit": "%"}, {"measurement": "HDL (High Density Lipoprotein)", "setting": "dislipidemic hamster; dose 10 mg/kg", "result": "−25", "unit": "%"}, {"measurement": "TG (Triglycerides)", "setting": "dislipidemic hamster; dose 10 mg/kg", "result": "−22", "unit": "%"}]}, {"molecule": "Xyloccensin-I", "values": [{"measurement": "STZ-s model % change 5 h", "setting": "[1]; 5 h", "result": "Nil"}, {"measurement": "STZ-s model % change 24 h", "setting": "[1]; 24 h", "result": "Nil"}, {"measurement": "FFA (Free Fatty Acid)", "setting": "dislipidemic hamster; dose 25 mg/kg", "result": "−17", "unit": "%"}, {"measurement": "GLY (Glycerol)", "setting": "dislipidemic hamster; dose 25 mg/kg", "result": "−5", "unit": "%"}, {"measurement": "H/C (High density lipoprotein/cholesterol ratio)", "setting": "dislipidemic hamster; dose 25 mg/kg", "result": "−7", "unit": "%"}, {"measurement": "HDL (High Density Lipoprotein)", "setting": "dislipidemic hamster; dose 25 mg/kg", "result": "−5", "unit": "%"}]}]}
